Legend:
Format in all cases: cell-based
Escherichia coli (EC) = test: Preservation efficacy test (PET), European Pharmacopoeia 5.1.3
In short: (§1)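 Preparations challenged with prescribed inoculums per European Pharmacopoeia 5.1.3, counting microorganisms after the prescribed time. Adequate preservation means a significant fall or no increase in counts.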

[1] = tested on: Staphylococcus aureus (SA); test: as above
In short: as §1

Candida albicans (CA) = test: as above
In short: as §1

human sebaceous glands = test: Sebum production of micro-dissected, cultured human sebaceous glands (lipids/proteins after six days); design: sebum reduction: concentration or dose not given beside the values; conditions: compared to untreated control; six days; single donor (FIG. 4)
Procedure: Additional tests were performed with human sebaceous glands in order to verify the modulatory activity of different 1,2-alkanediols and 2,3-alkanediols on sebum secretion. Several microbial species on the skin are lipid dependent and feed on the human sebum (e.g. Corynebacterium, Propionibacterium). Accordingly, sebum reduction can indirectly support the reduction of microorganisms on the skin and in this way also indirectly support e.g. dandruff or acne reduction.
For these experiments sebaceous glands had been micro-dissected and cultured with medium. The medium without any supplement served as untreated control. Medium with 5 μM Capsaicin served as positive control. Additionally, culture medium was supplemented with different concentrations of alkanediols. After six days the sebaceous glands were collected and lipids and proteins quantified. The total lipid amount being representative of sebum production was obtained by normalizing the quantified lipids upon the quantified proteins (i.e. mg of lipids/mg of proteins).

[2] = tested on: reactive oxygen species (ROS) on ex vivo skin; test: DCF assay, ROS score on ex vivo skin, aqueous/alcoholic (ethanolic) test system; conditions: vehicle (EtOH/H2O) plus alkanediol only
Procedure: A dichlorofluorescein test (DCF) assay was performed in order to determine the amount of reactive oxygen species (ROS) on ex vivo skin treated with different test samples in a lipophilic or an aqueous/alcoholic system as described below.
DCF assay—assay principle: Ex vivo skin was incubated with 2′,7′-dichlorodihydrofluorescein diacetate at 37° C., 5% CO2. After PBS washing, samples were exposed or not to cumene hydroperoxide. Immediately after exposure, ex vivo skin samples were frozen in liquid nitrogen and 5 μm cryostat sections were made and fixed with acetone to allow the visualisation of fluorescence generated by ROS in cells of the reconstructed skins. The resulting fluorescence was measured at EX/EM 504/524 nm. Green fluorescence was quantified in ex vivo skin using ImageJ software. The depth of immunostaining was measured as follows: green DCFH-DE positive cells were automatically detected using Histolab software and the distance between dermal epidermal junction and the deepest positive cells were measured in each condition. Means were compared using a student's test. […]
The image acquisition was performed by using Olympus BX51 microscope and Olympus DP70 camera. For each skin sample two skin sections have been taken and the related fluorescent images acquired and analyzed. Thus, for each test condition, 12 images have been acquired and analyzed (i.e. 12 data). […]

CCCCCC(O)CO (centres unmarked) [1,2-heptanediol]
number of microorganisms after 2 days (Escherichia coli (EC); 0.1% in shampoo): 2,100,000
number of microorganisms after 7 days (Escherichia coli (EC); 0.1% in shampoo): 1,400,000
number of microorganisms after 14 days (Escherichia coli (EC); 0.1% in shampoo): 200,000
number of microorganisms after 28 days (Escherichia coli (EC); 0.1% in shampoo): 1
number of microorganisms after 2 days (Escherichia coli (EC); 0.2% in o/w emulsion): 38,000
number of microorganisms after 7 days (Escherichia coli (EC); 0.2% in o/w emulsion): 73
number of microorganisms after 14 days (Escherichia coli (EC); 0.2% in o/w emulsion): 1
number of microorganisms after 28 days (Escherichia coli (EC); 0.2% in o/w emulsion): 1
number of microorganisms after 2 days (Escherichia coli (EC); 0.4% in o/w emulsion): 23,000
number of microorganisms after 7 days (Escherichia coli (EC); 0.4% in o/w emulsion): 4,100
number of microorganisms after 14 days (Escherichia coli (EC); 0.4% in o/w emulsion): 1
number of microorganisms after 28 days (Escherichia coli (EC); 0.4% in o/w emulsion): 1
number of microorganisms after 2 days ([1]; 0.1% in shampoo): 10
number of microorganisms after 7 days ([1]; 0.1% in shampoo): 10
number of microorganisms after 14 days ([1]; 0.1% in shampoo): 1
number of microorganisms after 28 days ([1]; 0.1% in shampoo): 1
number of microorganisms after 2 days ([1]; 0.2% in o/w emulsion): 95,000
number of microorganisms after 7 days ([1]; 0.2% in o/w emulsion): 1
number of microorganisms after 14 days ([1]; 0.2% in o/w emulsion): 1
number of microorganisms after 28 days ([1]; 0.2% in o/w emulsion): 1
number of microorganisms after 2 days ([1]; 0.4% in o/w emulsion): 15,000
number of microorganisms after 7 days ([1]; 0.4% in o/w emulsion): 2,600
number of microorganisms after 14 days ([1]; 0.4% in o/w emulsion): 1
number of microorganisms after 28 days ([1]; 0.4% in o/w emulsion): 1
number of microorganisms after 2 days (Candida albicans (CA); 0.1% in shampoo): 220,000
number of microorganisms after 7 days (Candida albicans (CA); 0.1% in shampoo): 62,000
number of microorganisms after 14 days (Candida albicans (CA); 0.1% in shampoo): 8,100
number of microorganisms after 28 days (Candida albicans (CA); 0.1% in shampoo): 1
number of microorganisms after 2 days (Candida albicans (CA); 0.2% in o/w emulsion): 1,300,000
number of microorganisms after 7 days (Candida albicans (CA); 0.2% in o/w emulsion): 1,600,000
number of microorganisms after 14 days (Candida albicans (CA); 0.2% in o/w emulsion): 1,200,000
number of microorganisms after 28 days (Candida albicans (CA); 0.2% in o/w emulsion): 620,000
number of microorganisms after 2 days (Candida albicans (CA); 0.4% in o/w emulsion): 71,000
number of microorganisms after 7 days (Candida albicans (CA); 0.4% in o/w emulsion): 2,800
number of microorganisms after 14 days (Candida albicans (CA); 0.4% in o/w emulsion): 1
number of microorganisms after 28 days (Candida albicans (CA); 0.4% in o/w emulsion): 1
sebum reduction (human sebaceous glands): 22%
antioxidative efficacy without antioxidant (in words) [2]: do not have an antioxidative efficacy

Source: patent publication US20230248626A1, “Compositions Comprising (Bio)-Alkanediols” (Symrise AG, priority 0001, published 2023)
